6 compounds from publication PMC7778606, “Development of the phenylpyrazolo[3,4-d]pyrimidine-based, insulin-like growth factor receptor/Src/AXL-targeting small molecule kinase inhibitor” (Theranostics, 2021) can be followed below.

As a reminder, the pIC50 is the negative decadic logarithm of the IC50, by convention in mol/L.

pIC50: −log10 of the molar value.

One experiment has as its system IGF-1R. In words: Western blot, phosphorylation of IGF-1R in H1944 and A549 cells. The format is cell-based, human. The following applies: 2 μM monotherapy, 1 day. The method, then: (§1) Before harvesting, the cells were stimulated with 10% FBS for 20 min. Total cell lysates were prepared with modified radioimmunoprecipitation assay lysis buffer (50 mM Tris-HCl [pH 7.4], 150 mM NaCl, 1 mM EDTA, 0.25% sodium deoxycholate, 1% Triton X-100, 100 mM NaF, 5 mM Na3VO4, 1 mM PMSF, 1 μg/mL aprotinin, 1 μg/mL leupeptin, and 1 μg/mL pepstatin). Equal amounts of protein (20 μg) were subjected to 8% SDS-PAGE and electrically transferred onto polyvinylidene difluoride membranes (Bio-Rad Laboratories, Hercules, CA, USA). Membranes were blocked with blocking buffer (3% BSA in Tris-buffered saline containing 0.1% Tween-20 [TBST]) for 1 h at room temperature. The membranes were incubated with primary antibodies diluted in 3% BSA in TBST (1:1,000) overnight at 4 °C, washed multiple times with TBST, and incubated with secondary antibodies diluted in 3% nonfat dry milk in TBST (1:5,000) for 1 h at room temperature. The membranes were washed multiple times with TBST and visualized using an enhanced chemiluminescence detection kit (Thermo Fisher Scientific). Densitometric analysis was performed using ImageJ software.

For the next experiment, the system named is H460 cells. In words: MTT assay, viability of H460 cells. The format is cell-based. The following applies: Homo sapiens, NCI-H460, 72 h, three days, read-out: IC50 against the viability. The method, then:
(§2) Cells were seeded into 96-well plates at a density of 1-2 × 10^3 cells/well and incubated for 24 h. Cells were treated with vehicle or various concentrations of test compounds for two (PC9 and PC9/ER cells) or three (other cells) days. Cells were further incubated with MTT solution (final concentration of 500 μg/mL) for 4 h at 37 °C. The formazan products were dissolved in dimethyl sulfoxide (DMSO), and the absorbance was measured at 570 nm. The data are presented as a percentage of the control group.
A general note: Tetrazolium assays rely on reduction of a dye to a coloured formazan, in cell work by metabolically active cells.

For the next experiment, the system named is H1299 cells. Description: MTT assay, viability of H1299 cells. The following applies: Homo sapiens, NCI-H1299, 72 h, three days, read-out: IC50 against the viability. It counts as cell-based. The method, then:
as §2

The next experiment deals with A549 cells. In words: MTT assay, viability of A549 cells. It counts as cell-based. The following applies: Homo sapiens, 72 h; A549, MTT assay, 10 μM; read-out: % cells growth at 10 μM. The method, then: as §2
A further experiment has as its system AXL. Description: Western blot, phosphorylation of AXL in H1944 and A549 cells. The format is cell-based, human. The note with it: 100 nM monotherapy, 1 day. The method, then:
as §1
(In general: In western blotting, separated proteins are transferred to a membrane and probed.)

On to `C[C@]1(O)C[C@@H](c2nc(-c3ccc4ccc(-c5ccccc5)nc4c3)c3c(N)nccn32)C1` [Linsitinib], for which, in the experiment on IGF-1R, the “phosphorylation of IGF-1R” value is listed as “suppressed phosphorylation”. The pIC50 with H460 cells was 5.42; in the experiment with H1299 cells it was 4.89.

In the case of `Cc1ccc(-c2n[nH]c3ncnc(N)c23)cc1` [Compound 1a], in the experiment with A549 cells, the activity at 10 µM turned out to be 98%.

Turning to `Cc1nc(Nc2ncc(C(=O)Nc3c(C)cccc3Cl)s2)cc(N2CCN(CCO)CC2)n1` [Dasatinib, dasatinib], the pIC50 with H460 cells was 6.27; in the experiment on H1299 cells, 7.70.

In the case of `Nc1nc(Nc2ccc3c(c2)CC[C@@H](N2CCCC2)CC3)nn1-c1cc2c(nn1)-c1ccccc1CCC2` [Bemcentinib, bemcentinib], the pIC50 with H460 cells was 6.74; with H1299 cells, 6.28. Further, in the experiment with AXL, the “phosphorylation of AXL” value is reported as “suppressed phosphorylation”.

With `COc1cc(Nc2c(C#N)cnc3cc(OCCCN4CCN(C)CC4)c(OC)cc23)c(Cl)cc1Cl` [Bosutinib, bosutinib, reference compound], in the experiment with A549 cells, the activity at 10 µM turned out to be 46%.

`Oc1ccc(Nc2nccc(Nc3cnc4ccccc4c3)n2)cc1` [Compound 23a]: in the experiment on A549 cells, the activity at 10 µM amounted to 69%.
